Assay results reported in US7326710B2, “Aralkyl formyl-alkyl piperazine derivatives and their uses as a cerebral nerve protective agent” (Shanghai Institute of Pharmaceutical Industry, priority 2002, dated 2008).

Legend:
[1] = test system: cerebral anoxia in mice; assay: Anoxic anoxia experiment in mice (closed wide-mouth bottles with soda lime); format: in vivo, Male Kunming mice
Protocol: Methods: Male Kunming mice were divided into 8 groups, 12 mice for each group. One group is injected subcutaneously with saline ([…], sc), other groups with ACEA1021 (NMDA receptor antagonist under clinical trial) or IV-23. 30 minutes after administration, the animals were put separately into wide-mouth bottles with soda lime, which more quickly closed. The survival time for each mice was recorded, and the group average of survival time was calculated and compared with the saline group.

[2] = test system: focal cerebral ischemia in rats; assay: Focal brain injury, occlusion of MCA induced by photochemical reaction; format: in vivo; conditions: rats, 2 mg/kg
Protocol: a. Focal brain injury caused by photochemical induction of occlusion of the artery:
The percentage of infarction was lowered by 52% at 24 hours after operation.

[3] = test system: focal cerebral ischemia in rats; assay: Temporary occlusion of the right MCA in rats caused by suture; format: in vivo; conditions: rats; 10 mg/kg; length of ischemia 6 hr
Source text: b. Temporary occlusion of the right MCA in rats caused by suture.

[4] = test system: global cerebral ischemia in rats; assay: Global cerebral ischemia in rats, bilateral common carotid artery occlusion with exsanguine hypotension; format: in vivo; conditions: reperfusion after 10 min occlusion
Source text: The animal models of the bilateral common carotid artery occlusion with exsanguine hypotension in the rats were used to investigate the effect against global cerebral ischemia.
Methods: The animals were administrated four compounds (IV-2, 23, 34, 36) orally for 3 days before the experiment. […]

[5] = test system: focal cerebral ischemia in rats; assay: Focal cerebral ischemia in rats by occlusion of middle cerebral artery (MCA); format: in vivo; conditions: 20 mg/kg p.o.; for Neurological deficit 24 h: 24 h after operation
Protocol: The focal ischemia rat model by occlusion of middle cerebral artery (MCA) was used to determine the protective effects of the compounds on focal cerebral ischemia. The infarct size after focal cerebral ischemia and the weight percentage of cerebral hemisphere were calculated to evaluate the compounds' effects on focal cerebral ischemia.

[6] = test system: global cerebral ischemia-reperfusion injury in rats; assay: Global cerebral ischemia-reperfusion in rats, four arteries reversible occlusion; format: in vivo; conditions: Nimodipine 1 mg/kg
Source text: The effect of IV-23 on cerebral ischemia-reperfusion in rats was studied using four arteries reversible occlusion by measuring the recovering time of the electroencephalogram and the righting reflex (a short time indicates a strong effect).

[7] = test system: focal cerebral ischemia in rats; assay: Focal cerebral infarction, electrical coagulation to occlude MCA; format: in vivo; design: The neurological deficit score After the operation / The neurological deficit score 24 h: scale not given here; conditions: Nimodipine, dose not given
Protocol: a. The Focal Cerebral-Infarction of Using Electrical Coagulation to Occlude MCA:
For the 5 mg/kg group, the percentage of the rat's infarct size was decreased, but the difference is not significant (p=0.098). The effect is not significant for the Nimodipine mg/kg.

[8] = test system: anoxia induced by sodium nitrite in mice; assay: Anti-cerebral anoxia in mice, anoxia induced by sodium nitrite; format: in vivo; conditions: Mus musculus, sc, mice; sodium nitrite 225 mg/kg ip; compound 20 mg/kg sc; read-out: Prolonging the survival duration (%)
Protocol: The rates of the prolongation of 9 compounds (IV-2, 10, 23, 32, 34, 36, 39, 40, 41) were more than 50%, which indicated the effect of anti-cerebral anoxia. IV-23 and IV-2 prolonged the survival duration by 100% of the animals, showing remarkably protective action for cerebral anoxia. (Table 3)
One model was established to test the time needed for mice to die because of anoxia caused by sodium nitrite (225 mg/kg, ip). IV-23 (20 mg/kg, sc) can prolong the time for 100%, indicating significant anti-cerebral anoxic anoxia activity.

[9] = test system: primary culture of rat cerebral cortical neuronal cells; assay: Effect of NMDA on neurons, LDH activity in supernatant; format: cell-based; conditions: n = 12
Source text: Primary culture of rat cerebral cortical neuronal cells were used. […] This is further evidence that IV-23 is a new NMDA receptor antagonist, and has anti-cerebral ischemic injury functions as well.

Compound: O=c1[nH]c2cc(Cl)c(Cl)c([N+](=O)[O-])c2[nH]c1=O [ACEA-1021, reference compound]
- Average survival time (min)(means ± S.E.M.) ([1]; 2.5 mg/kg sc): 17.33 ± 1.18 min
- Average survival time (min)(means ± S.E.M.) ([1]; 5 mg/kg sc): 18.20 ± 0.82 min
- Average survival time (min)(means ± S.E.M.) ([1]; 10 mg/kg sc): 19.47 ± 1.17 min
- Average survival time (min)(means ± S.E.M.) ([1]; 20 mg/kg sc): 20.04 ± 1.38 min
- ED50 ([1]; Mus musculus, sc, survival time in anoxic anoxia): 29.2 mg/kg
- Necrotic percent (%) [2]: 17 ± 2 %
- Score of praxiology After operation [2]: 9.5 ± 0.5
- Weight of necrotic area [2]: 0.12 ± 0.02 g
- Score of praxiology 24 h ([2]; 24 h): 7.1 ± 1.9
- Percent of volume (Means ± SEM) [3]: 12.73 ± 1.24%

Compound: O=C(CN1CCN(CC(O)c2ccccc2)CC1)c1ccccc1 (centres unmarked) [IV-36, N^1-phenacyl-N^4-(2-phenylethyl-2-ol) piperazine]
- Recovery time of EEG ([4]; 20 mg/kg orally for 3 days): 20.10 min

Compound: COc1ccc2cc(C(=O)C(C)N3CCN(CC(=O)NCc4ccccc4)CC3)ccc2c1Cl (centres unmarked) [IV-33, N^1-[1-(5-chloro-6-methoxy-2-naphthoyl)ethyl]-N^4-[2-(benzylamino)-2-oxo-ethyl] piperazine]
- Infarct volume [5]: 0.12 ± 0.04 g
- Neurological deficit After operation [5]: 9.6 ± 0.6
- Neurological deficit 24 h [5]: 8.4 ± 1.5

Compound: COCCOC(=O)C1=C(C)NC(C)=C(C(=O)OC(C)C)C1c1cccc([N+](=O)[O-])c1 (centres unmarked) [Nimodipine, reference compound]
- Recovery time of EEG ([4]; Nimodipine 1 mg/kg positive control): 13.49 ± 5.55 min
- Infarct volume [5]: 0.188 ± 0.013 g
- Neurological deficit After operation [5]: 9.3 ± 1.7
- Neurological deficit 24 h [5]: 9.0 ± 4.1
- Time for electroencephalogram to disappear(S) [6]: 396.0 ± 559.8^Δ S
- Time for electroencephalogram to recover (S) [6]: 3264.0 ± 336.4^Δ S
- Time for righting reflex to recover (S) [6]: 1284.0 ± 1319.8^Δ S
- The neurological deficit score 24 h [7]: 8.3 ± 2.0
- The neurological deficit score After the operation [7]: 9.7 ± 0.5
- The percentage of infarction (%) [7]: 20.5 ± 6.8 %
- The weight of infarct area [7]: 0.15 ± 0.05 g

Compound: O=C(CN1CCN(CC=Cc2ccccc2)CC1)NCc1ccccc1 [IV-21, N1-[2-(benzylamino)-2-oxo-ethyl]-N^4-cinnamyl piperazine]
- ILS at 20 mg/kg [8]: 33%
- Infarct volume [5]: 0.12 ± 0.07 g
- Neurological deficit After operation [5]: 9.8 ± 0.5
- Percentage of infarct volume (%) [5]: 15.53 ± 8.27 %
- Neurological deficit 24 h [5]: 6.8 ± 2.5

Compound: O=C(CN1CCN(S(=O)(=O)Cc2ccc(F)cc2F)CC1)c1ccccc1 [IV-22, N^1-phenacyl-N^4-(2,4-difluorobenzylsulfonyl) piperazine]
- ILS at 20 mg/kg [8]: 26%
- Infarct volume [5]: 0.10 ± 0.02 g
- Neurological deficit After operation [5]: 9.6 ± 0.9
- Neurological deficit 24 h [5]: 7.4 ± 2.4

Compound: CN[C@H](CC(=O)O)C(=O)O [NMDA, N-methyl-D-aspartate]
- LDH activities (U/g protein) (mean ± SEM) ([9]; NMDA 0.1 mmol/L): 1.51 ± 0.25 U/g protein
- LDH activities (U/g protein) (mean ± SEM) ([9]; NMDA 0.5 mmol/L): 1.63 ± 0.19 U/g protein
- LDH activities (U/g protein) (mean ± SEM) ([9]; NMDA 1 mmol/L): 1.74 ± 0.17 U/g protein
- LDH activities (U/g protein) (mean ± SEM) ([9]; NMDA 2 mmol/L): 2.38 ± 0.31 U/g protein
